The values below are quoted from earlier work in patent publication US20120074308A1, “IMMUNOSUPPRESSANT MONITORING BY MALDI MASS SPECTROMETRY” (priority 2010, published 2012).

For this data set the following is noted: for therapeutic window: immunosuppressants currently used for transplant patients, level in blood; for narrow therapeutic range: levels in whole blood.

In the case of `C=CC[C@@H]1/C=C(\C)C[C@H](C)C[C@H](OC)[C@H]2O[C@@](O)(C(=O)C(=O)N3CCCC[C@H]3C(=O)O[C@H](/C(C)=C/[C@@H]3CC[C@@H](O)[C@H](OC)C3)[C@H](C)[C@@H](O)CC1=O)[C@H](C)C[C@@H]2OC` [Tacrolimus], the therapeutic window was 4 to 20 ng/mL and the narrow therapeutic range is 4 to 20 ng/mL.

`CO[C@H]1C[C@@H]2CC[C@@H](C)[C@@](O)(O2)C(=O)C(=O)N2CCCC[C@H]2C(=O)O[C@H]([C@H](C)C[C@@H]2CC[C@@H](O)[C@H](OC)C2)CC(=O)[C@H](C)/C=C(\C)[C@@H](O)[C@@H](OC)C(=O)[C@H](C)C[C@H](C)/C=C/C=C/C=C/1C` [Sirolimus]: the therapeutic window was 4 to 12 ng/mL and the narrow therapeutic range is 4 to 12 ng/mL. For the same compound, for the setting “blood level”, the “increased levels associated with high toxicity (thrombocytopenia, hyperlipidemia, high serum creatinine levels)” value is “above 15 nanogram per milliliter”.

For `CO[C@H]1C[C@@H]2CC[C@@H](C)[C@@](O)(O2)C(=O)C(=O)N2CCCC[C@H]2C(=O)O[C@H]([C@H](C)C[C@@H]2CC[C@@H](OCCO)[C@H](OC)C2)CC(=O)[C@H](C)/C=C(\C)[C@@H](O)[C@@H](OC)C(=O)[C@H](C)C[C@H](C)/C=C/C=C/C=C/1C` [Everolimus], the therapeutic window is 3 to 8 ng/mL and the narrow therapeutic range is 3 to 8 ng/mL.
